From patent US6656710B2, “Process for the production of amino acids using racemase and acylase” (priority 2000, dated 2003)

Tests used:
Assay type in all cases: biochemical
[1] = system: L-acylase from Aspergillus oryzae; experiment: L-acylase activity assay, producing L-Met from Moc-L-Met; details: Moc-L-Met 25 mM, Tris/HCl 50 mM pH 8.0, cobalt chloride 6 mM, L-Acylase 2.0 U, final volume 200 μL; L-Met detected by RP HPLC
From the text: Moc-L-Met was used in an assay to determine the activity of the L-acylase from Aspergillus oryzae. A. Producing L-Met from Moc-L-Met [table] D-Met and L-Met were detected by reverse phase HPLC (RP 18). The unit data for the enzymes refer to specific activity with N-Ac-L-Met and N-Ac-D-Met as substrate.

[2] = system: N-acetylamino acid racemase (AAR) from Amycolatopsis orientalis subsp. lurida; experiment: Racemase activity assay of recombinant N-acetylamino acid racemase (polarimeter); details: substrate 25 mM, Tris/HCl 50 mM pH 8.0, cobalt chloride 6 mM, ca. 150 μg AAR, 30° C., 3 to 12 hours, λ=365 nm
Method: Detection of the racemase activity of a recombinant N-acetylamino acid racemase AAR enzyme The substrate spectrum of the N-acetylamino acid racemase (AAR) from Amycolatopsis orientalis subsp. lurida was tested with the enzyme assay described herein below. The composition of the assay was as follows: [table] Enantiomer-pure amino acid derivatives were used in the assay and the formation of the corresponding racemate was followed using a polarimeter (Perkin-Elmer 241). The incubation was carried out at 30° C. (heatable cell) for 3 to 12 hours. The measurements were made at a wavelength of λ=365 nm.

[3] = system: D-acylase from Aspergillus oryzae in the presence of an N-acetylamino acid racemase (AAR) from Amycolatopsis orientalis subsp. lurida; experiment: D-acylase activity assay in the presence of AAR, producing D-Met from Moc-L-Met; details: Moc-L-Met 25 mM, Tris/HCl 50 mM pH 8.0, cobalt chloride 6 mM, D-Acylase 2.4 U, AAR 0.4 U, final volume 200 μL; D-Met detected by RP HPLC
From the text: B. Producing D-Met from Moc-L-Met Moc-L-Met was used in an assay to determine the activity of the D-acylase from Aspergillus oryzae in the presence of an N-acetylamino acid racemase (AAR) from Amycolatopsis orientalis subsp. lurida. [table] D-Met and L-Met were detected by reverse phase HPLC (RP 18). The unit data for the enzymes refer to specific activity with N-Ac-L-Met and N-Ac-D-Met as substrate.

Volume activity [1]: 1.4 U/ml
Specific Activity of the AAR [2]: 42 mU/mg
Volume activity [3]: 0.6 U/ml
SMILES: COC(=O)N[C@@H](CCSC)C(=O)O [N-methyloxycarbonyl-L-Met]
